Laboratory results as given in US20080057010A1, “METHOD FOR SKIN CARE” (NULIV SCIENCE LTD., priority 2006, published 2008).

Columns and labels:
[1] = test system: HaCaT cells; experiment: Glucosamine uptake assay in HaCaT cells; format: cell-based, human; details: 0.1 μM
Protocol: In glucosamine uptake test, HaCaT cells were seeded into 24-well plate at a density of 3×10^4 cells/well and cultured for 24 h. The cells were then treated in the absence (solvent control) or presence of various concentrations of astragalosides for another 48 h. The treated cells were then washed twice with PBS and incubated in glucose and serum free medium (GSFM). After 2 h, the cells were replaced with fresh GSFM containing 0.2 μCi of [^14C]-Glucosamine (American Radiolabelled Chemicals Inc, ARC, St. Louis, Mo., USA). At the designated time interval, the cells were washed twice with GSFM containing cold glucosamine and then lysed in 200 μL 2% SDS. Cell lysates were centrifuged at 15000 g for 15 min. Intracellular uptaken glucosamine was determined by transferring 10 μL of the cell lysate to filter-bottemed UniFilter plates (Perkim-Elmer) and counted. Protein concentration of the samples was measured using the BCA protein assay kit as described above. Glucosamine accumulated in the cells was calculated and normalized to protein concentration and uptake rate was expressed as counts per minute per microgram of cell protein (cpm/min/μg).

[2] = test system: MMP-1; experiment: Quantitative analysis of MMP-1 transcripts in HDF cells (qRT-PCR); format: cell-based, human; details: 0.1 μM, MMP-1 mRNA relative to 0 = 1.00
Protocol: Relative levels of MMP-1 expression in HDF cells were determined by qRT-PCR. Preparation of total RNA and cDNA were carried out as described in previous sections. qRT-PCR was performed using the Applied Biosystem 7300 system and pre-developed Taqman Gene Expression Assays (Applied Biosystems, Foster City, Calif., USA). The reaction was performed as described in previous sections except that primer mix for human MMP-1 (assay ID HS00233958_m1, Applied Biosystems) and GAPDH (assay ID Hs99999905_m1, Applied Biosystems) were used.
Results shown in Tables 6A and 6B represent the quantitated data from zymography analysis of MMP-2 protein in HaCaT cells and qRT-PCR for MMP-1 in HDF cells. The concentrations used were 0, 0.01. 0.1, 1 μM (if not indicated otherwise) for pure compounds; and were 0, 1, 10, 40 μg/mL for crude extract (if not indicated otherwise). The cells were treated with the indicated compounds for 24 h before harvested for analysis of Pro-MMP-2 or activated MMP-2 in whole cell extract. Fifty micrograms of the cell extract samples were used for electrophoresis.

[3] = test system: collagen I; experiment: Collagen I expression and secretion in human HDF cells (western blot); format: cell-based; details: relative to 0 = 1.00
Protocol: (§1) Primary human dermal fibroblasts cells (HDF) were purchased from Cascade Biologics (Portland, Oreg., USA) and cultured in medium 106 supplemented with 10% fetal bovine serum (FBS), 100 IU/mL penicillin, 100 μg/mL of streptomycin. The cells from passages 4 to 10 were used for this study. Culture medium was replaced every other day. After confluence, the cells were subcultured following trypsinization. For subcultures cells were harvested after brief treatment with 0.1% trypsin/EDTA solution and seeded at a dilution of 1:10. The cells were seeded at 1×10^5 cells in 6-well culture plate for 24 h before treated with astragalosides or crude extracts, such as butanol fraction and water insoluble fraction of Astragalus membranaceus for the indicated time periods. Control cultures were maintained in medium supplemented with vehicle (dimethyl sulfoxide, DMSO, 0.1%). No growth and differentiation effects of DMSO were observed under these culture conditions.
(§2) The cells were treated with pure compounds such as astragaloside I (AS 1), astragaloside II (AS2), astragaloside III (AS3), astragaloside IV (AS4), astragaloside VI (AS6), isoastragaloside I (isoAS1), isoastragaloside II (isoAS2), and cycloastragenol 6-O-β-D-glucopyranose (AA) at concentrations of 0-10 μM. Alternatively, the cells were also treated with the crude extracts, such as butanol fraction and water insoluble fraction of Astragalus membranaceus at concentrations of 0, 1, 10, and 40 μg/mL. The cells were treated with the indicated compounds or the extracts for 24 h before harvested for analysis of collagen I and III expressed in the whole cell extract or secreted into the culture medium.
(§3) Western blot analysis was carried out on both of cultured medium and cell lysates. The cells were plated on 6-cm dishes at a density of 1×10^6 cells/dish for 24 h prior to treatment with indicated concentrations of astragalus triterpenoids as indicated for another 48 h. The conditioned culture mediums were then centrifuged, 2-fold concentrated and collected for assay of collagens and MMPs secreted into the culture medium. The cells were washed and lysed in 0.2 mL of lysis buffer (1% NP-40, 50 mM Tris-HCl, pH 7.4, 180 mM NaCl, 1 mM EDTA, 1 mM PMSF, 1 mM NaF, 10 mM Na3VO4) for 30 min at 4° C. After centrifuging at 17500 g for 15 min, the supernatants of cell lysate were also collected. Protein concentration of the samples were measured using the bicinchoninic acid (BCA) protein assay kit according to the manufacturer's protocol (Pierce, Rockford, Ill., USA). Equal amount of protein samples of concentrated conditioned medium (100 μg) or cell lysate supernatants (50 μg) were mixed with an appropriate volume of 4×SDS sampling buffer and separated by 8% SDS-PAGE gel. The protein bands separated in the SDS-PAGE gel were blotted onto a polyvinylidene fluoride (PVDF) membrane. The blotted PVDF membrane was washed twice and blocked in freshly prepared Tris-buffered saline (TBS) containing 0.1% Tween-20 and 7% skim milk (TBST) for 2 h at room temperature. The PVDF membrane was then incubated with either antibodies against collagen I and III or the housekeeping protein α-tubulin (Santa Cruz Biotechnology, Santa Cruz, Calif.) for 18 h at 4° C. Horseradish peroxidase-conjugated anti-goat antibody was used as secondary antibody. Signals were visualized by an enhanced chemiluminescence kit (Clonetech, Palo Alto, Calif., USA) followed by exposure to X-ray films.
The collagen expression in the human HDF cells was also determined. […] And Collage I was over-expressed in the cells treated with various doses (1, 10, 40 μg/mL) of the crude extracts, such as butanol fraction and water insoluble fraction of Astragalus membranaceus.

[4] = test system: collagen I; experiment: Collagen I expression in human HaCaT cells (western blot); format: cell-based; details: relative to 0 μM = 1.00
Protocol: The Spontaneously transformed human keratinocyte cell lines HaCaT cells were grown at 37° C. in a humidified incubator under 5% CO2 and 95% air in culture medium such as Dulbecco Modified Eagle Medium (DMEM) supplemented with 10% Fetal Bovine Serum (FBS), 100 IU/mL penicillin, 100 μg/mL of streptomycin, 2 mM sodium pyruvate and 1% Non-Essential Amino Acids (NEAA). The culture medium was replaced every other day. After confluence, the cells were subcultured following trypsinization. For subcultures cells were harvested after brief treatment with 0.1% trypsin/ethylenediaminetetraacetic acid (EDTA) solution and seeded at a dilution of 1:10. Cells between passages 12 and 45 were used for studies. The cells were seeded and incubated for 24 h before treated with the astragalosides for 24 h. Control cultures were maintained in medium supplemented with vehicle (dimethyl sulfoxide (DMSO) 0.1%). No growth and differentiation effects of DMSO were observed under these culture conditions.
as §2, §3
Results shown represent the quantitated data from western blot analysis. […] The collagen I was also over-expressed in the human HaCaT cells treated with 40 μg/mL of astragaloside extract.

[5] = test system: collagen III; experiment: Collagen III expression and secretion in human HDF cells (western blot); format: cell-based; details: relative to 0 = 1.00
Protocol: as §1, §2, §3

[6] = test system: MMP-1; experiment: UV-B-induced MMP-1 expression in human HDF cells (western blot, FIG. 1); format: cell-based; details: 50 mJ/cm^2 UV-B, positive control (FIG. 1 lane 3)
Protocol: To characterize the effects of astragalosides on the expression level of MMPs in human cells, HDF or HaCaT cells were first treated with or without various concentrations of astragalosides for 24 h. The cells were washed with phosphate-buffered saline (PBS) and irradiated with 10-100 mJ/cm^2 of UV-B (312 nm) for HDF-1 and HaCaT cells, respectively, using the UV light irradiator (UVItec unlimited, Cambridge, England). The cells were then washed and incubated with serum free medium for 24 h before harvested for analysis. The effect of astragalosides on MMPs levels was analyzed by western blot and the activity of MMPs was analyzed by zymography. All trans retinoic acid (atRA) was used as a positive control to suppress the UV-B-induced MMPs activation and expression.
Human HDF cells were treated with the indicated concentrations of water insoluble fraction of Astragalus membranaceus for 24 h. The cells were then irradiated with 50 mJ/cm^2 of UV-B. After 24 h, the cells were harvested for western blot analysis. […] Thus, the water insoluble fraction of Astragalus membranaceus is a potential agent for the prevention and treatment of skin aging as a result of UV irradiation.

SMILES | Uptake rate (glucosamine) ([1]; 48 h treatment) [CPM/μg protein] | Percentage (%) of control glucosamine uptake ([1]; relative to control) [%] | MMP-1 Q-PCR [2] | Collagen I in cell ([3]; 0.01 μM) | Collagen I in medium ([3]; 0.01 μM) | Collagen I in cell ([3]; 0.1 μM) | Collagen I in medium ([3]; 0.1 μM) | Collagen I in cell ([3]; 1 μM) | Collagen I in medium ([3]; 1 μM) | Collagen I in cell ([4]; 0.01 μM) | Collagen I in cell ([4]; 0.1 μM) | Collagen I in cell ([4]; 1 μM) | Collagen III in medium ([5]; 0.01 μM) | Collagen III in medium ([5]; 0.1 μM) | Collagen III in medium ([5]; 1 μM) | UV-mediated induction of MMP-1 expression [6]
CC(C)(O)C1CC[C@](C)(C2[C@@H](O)C[C@@]3(C)C4C[C@H](OC5OC(CO)C(O)C(O)C5O)C5C(C)(C)[C@@H](O)CCC56CC46CC[C@]23C)O1 (stereo partly drawn) [AA, cycloastragenol 6-O-β-D-glucopyranose] | 0.9445 ± 0.0823 | 114.59 | 0.76 | 1.04 | 0.97 | 1.85 | 0.95 | 1.17 | 1.52 | 2.57 | 3.34 | 3.47 | 1.03 | 1.62 | 1.34 | 
CC1=C(/C=C/C(C)=C/C=C/C(C)=C/C(=O)O)C(C)(C)CCC1 [atRA, All trans retinoic acid] |  |  |  |  |  |  |  |  |  |  |  |  |  |  |  | blocked
